This is an account of results in US20250026743A1, “HETEROARYL-LINKED ANALOGS AS MGLU5 NEGATIVE ALLOSTERIC MODULATORS AND METHODS OF MAKING AND USING THE SAME” (Vanderbilt University, priority 2021, published 2025).

pIC50: −log10 of the molar value. Where two headings read alike, the source gives them in different places. Where only a bound is given, the exact number is not on record here.

What is called pIC50 is the IC50 on a negative log10 scale, so that one unit is a factor of ten.

This assay concerns the target T1, hmGlu5 (Homo sapiens, UniProt P41594).
T1 construct: expressed in transfected cells; host or cells: HEK 293A
Nature of the assay: mGlu5 Ca2+ flux assay in HEK 293A cells (negative allosteric modulation of glutamate EC80 response). The assay is classed as cell-based. Particulars: for remaining activity at 30 µM: HEK293-A, read-out: hmGlu5 NAM Emin (%); for pIC50: HEK 293A cells, Ca2+ flux, glutamate EC80, >10,000 = decrease without plateau, read-out: hmGlu5 NAM IC50. As to the method:
HEK 293A cells stably expressing either rat or human mGlu5 were plated in black-walled, clear-bottomed, poly-D-lysine coated 384-well plates in 20 μL of assay medium (DMEM containing 10% dialyzed FBS, 20 mM HEPES, 100 units/mL penicillin/streptomycin plus 250 ng/mL Fungizone, and 1 mM sodium pyruvate) at a density of 20K cells/well. The cells were grown overnight at 37° C. in the presence of 5% CO2. The next day, medium was removed and the cells incubated with 20 μL of 2.3 μM Fluo-4, AM prepared as a 2.3 mM stock in DMSO and mixed in a 1:1 ratio with 10% (w/v) pluronic acid F-127 and diluted in assay buffer (Hank's balanced salt solution, 20 mM HEPES, and 2.5 mM probenecid) for 45 minutes at 37° C. Dye was removed, 20 μL of assay buffer was added, and the plate was incubated for 5 minutes at room temperature.
Ca^2+ flux was measured using the Functional Drug Screening System (FDSS7000, Hamamatsu, Japan). After establishment of a fluorescence baseline for about 3 seconds, the compounds of the present invention were added to the cells, and the response in cells was measured. 2.3 minutes later an EC20 concentration of the mGlu5 receptor agonist glutamate was added to the cells, and the response of the cells was measured for 1.9 minutes; an EC80 concentration of agonist was added and readings taken for an additional 1.7 minutes. All test compounds were dissolved and diluted to a concentration of 10 mM in 100% DMSO. Compounds were then serially diluted 1:3 in DMSO into 10 point concentration response curves, transferred to daughter plates, and further diluted into assay buffer to a 2× stock. Calcium fluorescence measures were recorded as fold over basal fluorescence; raw data was then normalized to the maximal response to glutamate. Antagonism of the agonist response of the mGlu5 receptor in the present invention was observed as a decrease in response to nearly maximal concentrations of glutamate in the presence of compound compared to the response to glutamate in the absence of compound.
The raw data file containing all time points was used as the data source in the analysis template. This was saved by the FDSS as a tab-delimited text file. Data were normalized using a static ratio function (F/F0) for each measurement of the total 360 values per well divided by each well's initial value. Data were then reduced to peak amplitudes (Max−Initial Min) using a time range that starts approximately 3 seconds prior to the glutamate EC20/EC80 addition and continues for approximately 90-120 seconds. This is sufficient time to capture the peak amplitude of the cellular calcium response. Individual amplitudes were expressed as % EMax by multiplying each amplitude by 100 and then dividing the product by the mean of the amplitudes derived from the glutamate ECMax-treated wells. IC50 values for test compounds were generated by fitting the normalized values versus the log of the test compound concentration (in mol/L) using a 4 parameter logistic equation where none of the parameters were fixed. Each of the three values collected at each concentration of test compound were weighted evenly.
For NAMs with a CRC that plateaus above 10% Glu Max, the IC50 values are reported, the compound is designated a “partial NAM” and the % Glu Max is reported. […] Compounds without measurable activity are designated as “>30,000 nM” since the top concentration of compound tested in the assay is 30 μM. […]
(In general: Calcium assays in cells follow changes in intracellular calcium, usually with a dye or a luminescent sensor.)

T1 sequence (P41594 21-1212): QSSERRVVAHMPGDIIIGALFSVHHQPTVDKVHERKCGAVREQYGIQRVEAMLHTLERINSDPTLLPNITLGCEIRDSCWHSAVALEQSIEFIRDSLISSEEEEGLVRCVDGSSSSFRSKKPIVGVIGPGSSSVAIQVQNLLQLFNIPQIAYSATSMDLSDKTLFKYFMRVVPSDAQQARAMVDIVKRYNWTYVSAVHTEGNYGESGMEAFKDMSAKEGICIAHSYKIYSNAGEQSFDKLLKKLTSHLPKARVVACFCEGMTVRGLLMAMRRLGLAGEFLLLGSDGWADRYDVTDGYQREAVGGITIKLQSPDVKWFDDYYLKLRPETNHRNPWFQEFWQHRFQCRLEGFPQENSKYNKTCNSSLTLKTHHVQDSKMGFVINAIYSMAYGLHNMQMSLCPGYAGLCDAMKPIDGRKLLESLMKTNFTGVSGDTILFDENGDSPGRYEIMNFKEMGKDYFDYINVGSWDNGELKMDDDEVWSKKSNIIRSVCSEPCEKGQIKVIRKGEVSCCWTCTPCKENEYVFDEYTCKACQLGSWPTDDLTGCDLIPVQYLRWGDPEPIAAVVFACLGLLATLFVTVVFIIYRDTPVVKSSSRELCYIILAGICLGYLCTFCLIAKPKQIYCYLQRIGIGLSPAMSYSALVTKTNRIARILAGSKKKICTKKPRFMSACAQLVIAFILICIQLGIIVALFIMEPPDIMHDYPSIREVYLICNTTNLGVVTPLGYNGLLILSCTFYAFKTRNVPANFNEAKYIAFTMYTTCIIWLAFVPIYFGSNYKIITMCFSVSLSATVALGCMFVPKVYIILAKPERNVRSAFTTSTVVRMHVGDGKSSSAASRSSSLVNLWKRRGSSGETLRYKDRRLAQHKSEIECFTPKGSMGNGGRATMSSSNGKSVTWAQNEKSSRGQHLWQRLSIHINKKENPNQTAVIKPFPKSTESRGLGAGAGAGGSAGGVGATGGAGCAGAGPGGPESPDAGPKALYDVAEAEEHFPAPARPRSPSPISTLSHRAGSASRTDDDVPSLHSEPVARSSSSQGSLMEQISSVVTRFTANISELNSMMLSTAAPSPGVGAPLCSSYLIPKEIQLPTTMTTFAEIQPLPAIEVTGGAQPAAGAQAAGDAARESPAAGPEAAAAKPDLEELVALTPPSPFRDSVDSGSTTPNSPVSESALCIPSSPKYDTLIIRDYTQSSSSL

Consider `Cc1nc(-c2noc(-c3ccc(F)cn3)n2)cc(-c2cncc(C#N)c2)c1F` [Compound 68, 3′-fluoro-6′-(5-(5-fluoropyridin-2-yl)-1,2,4-oxadiazol-3-yl)-2′-methyl-[3,4′-bipyridine]-5-carbonitrile], for which the pIC50 is 6.12. Besides, the remaining activity at 30 µM (% Glu max at 30 μM) is 3%.

As to `COc1c(-c2cncc(F)c2)cc(-c2n[nH]c(-c3ccc(F)cc3)n2)nc1C` [Compound 102, 5-fluoro-6′-(5-(4-fluorophenyl)-1H-1,2,4-triazol-3-yl)-3′-methoxy-2′-methyl-3,4′-bipyridine], the pIC50 was 6.18. In addition, the remaining activity at 30 µM (% Glu max at 30 μM) was 2%.

Regarding `Cc1nc(-c2noc(-c3ccc(F)cn3)n2)cc(-c2cnccc2Cl)c1F` [Compound 69, 3-(4-chloro-5′-fluoro-6′-methyl-[3,4′-bipyridin]-2′-yl)-5-(5-fluoropyridin-2-yl)-1,2,4-oxadiazole], the pIC50 was 6.96. Further, the remaining activity at 30 µM (% Glu max at 30 μM) stood at 3%.

In the case of `Cc1ccncc1-c1cc(-c2noc(C(C)c3ccccc3)n2)nc(C)c1F` (centres unmarked) [Compound 95, 3-(5′-fluoro-4,6′-dimethyl-[3,4′-bipyridin]-2′-yl)-5-(1-phenylethyl)-1,2,4-oxadiazole], the pIC50 is < 5.00. The remaining activity at 30 µM (% Glu max at 30 μM) is 27%.

For `Cc1ccncc1-c1cc(-c2nc(-c3ccc(F)cn3)no2)nc(C)c1F` [Compound 8, 5-(5′-fluoro-4,6′-dimethyl-[3,4′-bipyridin]-2′-yl)-3-(5-fluoropyridin-2-yl)-1,2,4-oxadiazole], the pIC50 is 6.91. Besides, the remaining activity at 30 µM (% Glu max at 30 μM) came to 2%.

Regarding `COc1c(-c2cncc(F)c2)cc(-c2n[nH]c(-c3cccc(F)c3)n2)nc1C` [Compound 101, 5-fluoro-6′-(5-(3-fluorophenyl)-1H-1,2,4-triazol-3-yl)-3′-methoxy-2′-methyl-3,4′-bipyridine], the pIC50 is 6.94. Also, the remaining activity at 30 µM (% Glu max at 30 μM) was 11%.

Turning to `Fc1ccc(-c2nc(-c3cc(-c4cncc(F)c4)cc(C(F)F)n3)no2)nc1` [Compound 61, 3-(6′-(difluoromethyl)-5-fluoro-[3,4′-bipyridin]-2′-yl)-5-(5-fluoropyridin-2-yl)-1,2,4-oxadiazole], the pIC50 is 6.90. Besides, under “% Glu max at 30 μM”, the remaining activity at 30 µM was 6%.

Turning to `Cc1nc(-c2noc(-c3ccc(F)cn3)n2)cc(-c2cncc(F)c2C)c1F` [Compound 41, 3-(5,5′-difluoro-4,6′-dimethyl-[3,4′-bipyridin]-2′-yl)-5-(5-fluoropyridin-2-yl)-1,2,4-oxadiazole], the pIC50 is 6.52. Where the note is “% Glu max at 30 μM”, the remaining activity at 30 µM worked out at 2%.

As for `Cc1nc(-c2noc(-c3ccc(F)cn3)n2)cc(-c2ccc(C3CC3)nc2)c1F` [Compound 31, 3-(6-cyclopropyl-5′-fluoro-6′-methyl-[3,4′-bipyridin]-2′-yl)-5-(5-fluoropyridin-2-yl)-1,2,4-oxadiazole], the pIC50 was 5.51. Under “% Glu max at 30 μM”, the remaining activity at 30 µM turned out to be 20%.

Regarding `Cc1ccncc1-c1cc(-c2noc(-c3ccc(F)cn3)n2)nc(C(F)F)c1` [Compound 60, 3-(6′-(difluoromethyl)-4-methyl-[3,4′-bipyridin]-2′-yl)-5-(5-fluoropyridin-2-yl)-1,2,4-oxadiazole], the pIC50 was 6.73. For the same compound, for the setting “% Glu max at 30 μM”, the remaining activity at 30 µM was 4%.

On to `[2H]C([2H])([2H])Oc1c(-c2cncc(F)c2)cc(-c2nc(-c3ccc(F)cn3)no2)nc1C` [Compound 103, 5-(5-fluoro-5′-(methoxy-d3)-6′-methyl-[3,4′-bipyridin]-2′-yl)-3-(5-fluoropyridin-2-yl)-1,2,4-oxadiazole], for which the pIC50 was 6.20. In addition, the remaining activity at 30 µM (% Glu max at 30 μM) is 5%.

Consider `Cc1nc(-c2noc(-c3ccc(F)cn3)n2)cc(-c2ccc(Cl)nc2)c1F` [Compound 34, 3-(6-chloro-5′-fluoro-6′-methyl-[3,4′-bipyridin]-2′-yl)-5-(5-fluoropyridin-2-yl)-1,2,4-oxadiazole], for which the pIC50 is 6.24. For the same compound, the remaining activity at 30 µM (% Glu max at 30 μM) came to 8%.

For `Cc1cc(O[C@@H]2CCOC2)cc(-c2noc(-c3ccccn3)n2)n1` [Compound 113, (R)-3-(6-methyl-4-((tetrahydrofuran-3-yl)oxy)pyridin-2-yl)-5-(pyridin-2-yl)-1,2,4-oxadiazole], the negative logarithm of the IC50 (pIC50) was 7.34. For the same compound, the remaining activity at 30 µM (% Glu max at 30 μM) is 2%.

`Cc1ccncc1-c1cc(-c2noc(-c3ccncc3)n2)nc(C)c1F` [Compound 93, 3-(5′-fluoro-4,6′-dimethyl-[3,4′-bipyridin]-2′-yl)-5-(pyridin-4-yl)-1,2,4-oxadiazole]: the pIC50 is 6.66. Moreover, the remaining activity at 30 µM (% Glu max at 30 μM) is 2%.

For `Cc1nc(-c2nnc(-c3ccc(F)cc3)o2)cc(-c2cncc(F)c2)c1F` [Compound 82, 2-(5,5′-difluoro-6′-methyl-[3,4′-bipyridin]-2′-yl)-5-(4-fluorophenyl)-1,3,4-oxadiazole], the remaining activity at 30 µM is 2% and the pIC50 is 6.11.

In the case of `COc1c(-c2cnccc2C)cc(-c2noc(-c3ccc(F)cn3)n2)nc1C` [Compound 10, 5-(5-fluoropyridin-2-yl)-3-(5′-methoxy-4,6′-dimethyl-[3,4′-bipyridin]-2′-yl)-1,2,4-oxadiazole], the pIC50 is 6.19. Further, where the note is “% Glu max at 30 μM”, the remaining activity at 30 µM is 2%.

In the case of `Cc1ccn(Cc2nc(-c3cc(-c4cnccc4C)c(F)c(C)n3)no2)n1` [Compound 65, 3-(5′-fluoro-4,6′-dimethyl-[3,4′-bipyridin]-2′-yl)-5-((3-methyl-1H-pyrazol-1-yl)methyl)-1,2,4-oxadiazole], the pIC50 is < 5.00. Moreover, the remaining activity at 30 µM (% Glu max at 30 μM) amounted to 36%.

Consider `Cc1nc(-c2noc(-c3ccc(F)cn3)n2)cc(-c2cncc(C(C)(C)O)c2)c1F` [Compound 62, 2-(3′-fluoro-6′-(5-(5-fluoropyridin-2-yl)-1,2,4-oxadiazol-3-yl)-2′-methyl-[3,4′-bipyridin]-5-yl)propan-2-ol], for which the pIC50 is 5.89. The remaining activity at 30 µM (% Glu max at 30 μM) stood at 5%.

For the compound `Cc1ccncc1-c1cc(-c2noc(-c3cc(Cl)ccn3)n2)nc(C)c1F` [Compound 91, 5-(4-chloropyridin-2-yl)-3-(5′-fluoro-4,6′-dimethyl-[3,4′-bipyridin]-2′-yl)-1,2,4-oxadiazole], the pIC50 is 6.81. Also, for the setting “% Glu max at 30 μM”, the remaining activity at 30 µM was 2%.

`Cc1csc(-c2nc(-c3cc(-c4cnccc4C)c(F)c(C)n3)no2)n1` [Compound 15, 3-(5′-fluoro-4,6′-dimethyl-[3,4′-bipyridin]-2′-yl)-5-(4-methylthiazol-2-yl)-1,2,4-oxadiazole]: the pIC50 is 7.01. For the setting “% Glu max at 30 μM”, the remaining activity at 30 µM was 2%.

On to `Cc1cccc(-c2nc(-c3cc(-c4cnccc4C)c(F)c(C)n3)no2)n1` [Compound 22, 3-(5′-fluoro-4,6′-dimethyl-[3,4′-bipyridin]-2′-yl)-5-(6-methylpyridin-2-yl)-1,2,4-oxadiazole], for which the pIC50 is 5.96. Besides, the remaining activity at 30 µM (% Glu max at 30 μM) came to 3%.

Consider `Cc1cc(-c2cncc(F)c2)cc(-c2nc(-c3ccc(F)cn3)no2)n1` [Compound 90, 5-(5-fluoro-6′-methyl-[3,4′-bipyridin]-2′-yl)-3-(5-fluoropyridin-2-yl)-1,2,4-oxadiazole], for which the pIC50 is 6.91. In addition, for the setting “% Glu max at 30 μM”, the remaining activity at 30 µM turned out to be 2%.
